Assay type in all cases: cell-based
Series [1] relates to U1 cells latently infected with HIV-1. Description: U1 latency activation assay (TNF-α induced, supernatant reverse transcriptase). The conditions noted are these: U1 cell assay. As for the experimental part: U1 cells were obtained from the AIDS Research and Reference Reagent Program and maintained under standard culture conditions in RPMI 1640 supplemented with 10% fetal bovine serum (heat inactivated), 2 mM L-glutamine, 100 U/mL penicillin and 100 μg/mL streptomycin. U1 cells are derived from the histocytic leukemia cell line U937, and contain an integrated copy of a cytokine and/or phorbol inducible provirus (HIV-1IIIB). Cultures were maintained in such a way as to ensure exponential growth of the populations. Addition of TNF-α to the cell culture induces HIV-1, so that inhibition of virus production indicates an inhibition of a post-integration function of the HIV-1 life cycle. This is where an inhibitor of Rev function would be expected to act. […]
(§1) At the time of the assay, cells were collected by centrifugation and counted by hemacytometer. If cell viability by Trypan Blue dye exclusion was less than 70% the assay was terminated. The cells were adjusted to 5×10^4 cells/mL and 100 μL placed in 96 well plates with 100 μL media containing a final concentration of 5 ng/mL TNF-α and the test compound. Cultures were incubated for 3 days and supernatants harvested. Compound toxicity was determined by MTS dye reduction. Virus expression was measured by supernatant reverse transcriptase activity.
Reverse transcriptase was assayed to measure virus particle release as described above for the PBMC assay.
(§2) Compounds were tested in the U1 latency assay using the maximum high-test concentration possible based on the supplied stocks which are listed in table 3. Compounds were tested using the maximum high-test concentration possible based on the supplied stocks. Compounds were prepared at a 2× high-test concentration by combining drug stock with tissue culture media at a ratio of 5 μL of drug to 995 μL of media. This 2× high-test sample was subsequently serially diluted in tissue culture media using 1/2 log dilutions. This series of 2× concentrated drug was subsequently diluted 1:1 by combining with an equal volume of cells in media in the 96-well plates used for the assay. Temacrazine a known inhibitor of HIV transcription was used as a control compound that is active in the post-integration part of the HIV life cycle.
(§3) Compounds were tested using the maximum high-test concentration possible based on the supplied stocks. Compounds were prepared at a 2× high-test concentration by combining drug stock with tissue culture media at a ratio of 5 μL of drug to 995 μL of media. This 2× high-test (HT) sample was subsequently serially diluted in tissue culture media using 1/2 log dilutions. This series of 2× concentrated drug was subsequently diluted 1:1 by combining with an equal volume of cells in media in the 96-well plates used for the assay.

The nature of series [2]: MTS staining for cell viability in U1 cell assay. Particulars: human, U1 cells stimulated with TNF-α, read-out: TC50. Here is the method: as §1
(§4) At assay termination, the assay plates were stained with the soluble tetrazolium-based dye MTS (CellTiter 96 Reagent, Promega) to determine cell viability and quantify compound toxicity as described for the PBMC assay.
as §2, §3

Another series concerns U1 cells. Description: MTS staining for cell viability in U1 cell assay. The conditions noted are these: analogs, Table 8, MTS, read-out: TC50 (the source's name). As for the experimental part:
as §1, §4, §2, §3

A further series deals with HIV-1 BR/93/021. Nature of the series: Anti-HIV efficacy in fresh human PBMCs, reverse transcriptase readout, HIV-1 BR/93/021. As for the experimental part:
(§5) Compounds were evaluated for their ability to inhibit HIV replication in fresh human PBMCs. The assay was performed as follows.
(§6) Fresh human PBMCs, seronegative for HIV and HBV, were isolated from screened donors (Interstate Blood Bank, Inc. Memphis, Tenn.). Cells were pelleted/washed 2-3 times by low speed centrifugation and re-suspension in PBS to remove contaminating platelets. The Leukophoresed blood was then diluted 1:1 with Dulbecco's Phosphate Buffered Saline (DPBS) and layered over 14 mL of Lymphocyte Separation Medium (LSM; Cellgro® by Mediatech, Inc.; density 1.078+/−0.002 g/ml; Cat.#85-072-CL) in a 50 mL centrifuge tube and then centrifuged for 30 minutes at 600×g. Banded PBMCs were gently aspirated from the resulting interface and subsequently washed 2× with PBS by low speed centrifugation. After the final wash, cells were enumerated by trypan blue exclusion and re-suspended at 1×10^7 cells/mL in RPMI 1640 supplemented with 15% Fetal Bovine Serum (FBS), and 2 mM L-glutamine, 4 μg/mL Phytohemagglutinin (PHA-P, Sigma). The cells were allowed to incubate for 48-72 hours at 37° C. After incubation, PBMCs were centrifuged and resuspended in RPMI 1640 with 15% FBS, 2 mM L-glutamine, 100 U/mL penicillin, 100 μg/mL streptomycin, 10 μg/mL gentamycin, and 20 U/mL recombinant human IL-2 (R&D Systems, Inc). IL-2 is included in the culture medium to maintain the cell division initiated by the PHA mitogenic stimulation. PBMCs were maintained in this medium at a concentration of 1-2×10^6 cells/mL with biweekly medium changes until used in the assay protocol. Cells were kept in culture for a maximum of two weeks before being deemed too old for use in assays and discarded. Monocytes were depleted from the culture as the result of adherence to the tissue culture flask.
(§7) For the standard PBMC assay, PHA-P stimulated cells from at least two normal donors were pooled (mixed together), diluted in fresh medium to a final concentration of 1×10^6 cells/mL, and plated in the interior wells of a 96 well round bottom microplate at 50 μL/well (5×10^4 cells/well) in a standard format developed by the Infectious Disease Research department of Southern Research Institute. Pooling (mixing) of mononuclear cells from more than one donor is used to minimize the variability observed between individual donors, which results from quantitative and qualitative differences in HIV infection and overall response to the PHA and IL-2 of primary lymphocyte populations. Each plate contains virus/cell control wells (cells plus virus), experimental wells (drug plus cells plus virus) and compound control wells (drug plus media without cells, necessary for MTS monitoring of cytotoxicity). Since HIV-1 is not cytopathic to PBMCs, this allows the use of the same assay plate for both antiviral activity and cytotoxicity measurements. Test drug dilutions were prepared at a 2× concentration in microtiter tubes and 100 μL of each concentration was placed in appropriate wells using the standard format. 50 μL of a predetermined dilution of virus stock was placed in each test well (final MOI≅0.1). The PBMC cultures were maintained for seven days following infection at 37° C., 5% CO2. After this period, cell-free supernatant samples were collected for analysis of reverse transcriptase activity as a measure of virus release. Following removal of supernatant samples, compound cytotoxicity was measured by addition of MTS to the plates for determination of cell viability. Wells were also examined microscopically and any abnormalities were noted.
(§8) A microtiter plate-based reverse transcriptase (RT) reaction was utilized (Buckheit et al., AIDS Research and Human Retroviruses 7:295-302, 1991). Tritiated thymidine triphosphate (3H-TTP, 80 Ci/mmol, NEN) was received in 1:1 dH2O:Ethanol at 1 mCi/mL. […]

In another series the test system is HIV-1 NL4-3. Nature of the series: Anti-HIV efficacy in fresh human PBMCs, reverse transcriptase readout, HIV-1 NL4-3. Here is the method: as §5, §6, §7, §8
The test system of another series is fresh human PBMCs. Nature of the series: MTS staining for PBMC viability to measure cytotoxicity. As for the experimental part:
as §7
At assay termination, assay plates were stained with the soluble tetrazolium-based dye MTS (CellTiter 96 Reagent, Promega) to determine cell viability and quantify compound toxicity. The mitochondrial enzymes of metabolically active cells metabolize MTS to yield a soluble formazan product. This allows the rapid quantitative analysis of cell viability and compound cytotoxicity. […] At termination of the assay, 20 μL of MTS reagent was added per well. The microtiter plates were then incubated 4-6 hrs at 37° C. The incubation intervals were chosen based on empirically determined times for optimal dye reduction. Adhesive plate sealers were used in place of the lids, the sealed plate was inverted several times to mix the soluble formazan product and the plate was read spectrophotometrically at 490/650 nm with a Molecular Devices Vmax or SpectraMaxPlus plate reader.
Compounds were tested in the PBMC assay using the maximum high-test concentration possible based on the supplied stocks which are listed in table 3. Compounds were prepared at a 2× high-test concentration by combining drug stock with tissue culture media at a ratio of 5 μL of drug to 995 μL of media. This 2× high-test sample was subsequently serially diluted in tissue culture media using 1/2 log dilutions. This series of 2× concentrated drug was subsequently diluted 1:1 by combining with an equal volume of cells in media in the 96-well plates used for the assay.

The term IC50 denotes the midpoint of a concentration-inhibition curve. Low readings indicate inhibition by little substance, high ones a need for much substance.

Where two headings read alike, the source gives them in different places. Where only a bound is given, the exact number is not on record here.

In series [1] (Human immunodeficiency virus 1, 72 h, Table 6, 5 ng/mL TNF-α, 3 days, RT activity), `O=c1c2ccccc2n2nnc3ccc(NCCCN4CCN(CCCNc5ccc6nnn7c8ccccc8c(=O)c5c67)CC4)c1c32` [Temacrazine, reference compound] had an IC50 of 0.002 µM. In addition, the “TI (TC50/IC50)” value in series [1] (Table 6) was greater than 250. Besides, the CC50 at 3 days in series [2] (Table 6, MTS) was greater than 0.5 µM; in series [2] (Table 8, control, MTS) it was greater than 0.5 µM.
With `CCCc1ccc2c(N)c(C(N)=O)sc2n1` [Compound 329], in series [1] (analogs, Table 8), the midpoint of inhibition, the IC50, lay at 2.03 µM. The CC50 with U1 cells came out at 58.4 µM.
The matching figures for `Cc1ccc(NC(=O)c2sc(Cl)nc2C)cc1C` [Compound 416]: 0.767 µM and greater than 75 µM.
The matching figures for `Cc1cc2c(N)c(C(N)=O)sc2nc1-c1ccc(F)cc1` [Compound 330]: 6.91 µM and greater than 75 µM.
The corresponding values for `CCc1c(C)nc2sc(C(=O)NCC(=O)O)c(N)c2c1C` [Compound 331] are 66 µM and greater than 75 µM.
On to `Clc1ccccc1Nc1nc(-c2ccc(Br)cc2)nc2ccccc12` [Compound 731], for which the IC50 in series [1] (analogs, Table 8) came out at 1.65 µM. For the same compound, the CC50 in the series on U1 cells was greater than 75 µM.
The matching figures for `C=CCc1c(C)nc2ccc(OC)cc2c1N` [Compound 214]: 9.19 µM and greater than 75 µM.
On to `Cc1cn([C@H]2C[C@H](N=[N+]=[N-])[C@@H](CO)O2)c(=O)[nH]c1=O` [AZT, reference compound], for which the “TI (TC50/IC50)” value is on record as greater than 404.86 in the series with HIV-1 BR/93/021 (HIV-1 BR/93/021, PBMCs) and greater than 1612.90 with HIV-1 NL4-3 (HIV-1 NL4-3, PBMCs). Further, the half-inhibitory concentration (IC50) in the series with HIV-1 BR/93/021 (HIV-1 BR/93/021, fresh human PBMCs, seven days, RT activity) amounted to 0.00247 µM; in the series on HIV-1 NL4-3 (HIV-1 NL4-3, fresh human PBMCs, seven days, RT activity), 0.00062 µM. The same compound displayed a CC50 with fresh human PBMCs greater than 1 µM.
As for `NC(=O)c1sc2nc(Cc3ccccc3)cc(C(F)(F)F)c2c1N` [Compound 334], in series [1] (analogs, Table 8), 2.37 µM corresponded to half-maximal inhibition (IC50). Further, the CC50 in the series on U1 cells was greater than 75 µM.
The matching figures for `COc1ccc(-c2cc(-c3ccccc3)nc3sc(C(N)=O)c(N)c23)cc1` [Compound 335]: 1.41 µM and 53.9 µM.
The matching figures for `CC1CCc2nc3sc(C(N)=O)c(N)c3cc2C1` (stereo not drawn) [Compound 336]: 2.92 µM and greater than 75 µM.
The corresponding values for `O=[N+]([O-])c1ccc(-c2cnc(NO)nc2)cc1` [Compound 614] are greater than 75 µM and greater than 75 µM.
Take `CCOC(=O)c1c(C)nc2sc(C(N)=O)c(N)c2c1-c1ccccc1` [Compound 338]: the concentration for half-maximal inhibition (IC50) in series [1] (analogs, Table 8) was 5.23 µM. Further, in the series with U1 cells, the CC50 is greater than 75 µM.
The corresponding values for `CC(=O)Nc1ccc(Nc2nc(-c3ccccc3)nc3ccccc23)cc1` [Compound 754] are 3.69 µM and 15.1 µM.
With `COC(=O)c1ccc(Nc2nc(-c3ccccc3Cl)nc3ccccc23)cc1` [Compound 728], the IC50 in series [1] (analogs, Table 8) amounted to 13.4 µM. Besides, in the series on U1 cells, the CC50 was 17.5 µM.
For `NC(=O)c1sc2nc3c(cc2c1N)CCC3` [Compound 324], 2.19 µM corresponded to half-maximal inhibition in series [1] (analogs, Table 8) (IC50). Also, the CC50 with U1 cells is greater than 75 µM.
In turn, `O=C(NCc1ccccn1)c1cc(Cl)nnc1Cl` [Compound 515] yielded an IC50 in series [1] (analogs, Table 8) of 13.6 µM. Besides, in the series on U1 cells, the CC50 was greater than 75 µM.
The matching figures for `Cc1ccc(NC(=O)c2sc(Cl)nc2C)cc1` [Compound 417]: 1.62 µM and 51.9 µM.
The corresponding values for `Cc1n[nH]c2nc3ccc(Cl)cc3c(-c3ccccc3)c12` [Compound 111] are 1.7 µM and greater than 50 µM.
The matching figures for `NC(=O)c1sc2nc3ccccc3cc2c1N` [Compound 337]: 2.4 µM and greater than 75 µM.
Consider `NC(=O)c1sc2nc(-c3cccnc3)ccc2c1N` [Compound 316], for which the IC50 in series [1] (analogs, Table 8) turned out to be 23.4 µM. Further, the CC50 with U1 cells is greater than 75 µM.
The matching figures for `NC(=O)c1sc2nc3c(cc2c1N)CCCC3` [Compound 321]: 1.94 µM and greater than 75 µM.
`N#Cc1c(C(F)(F)F)nc2ccc(F)cc2c1N` [Compound 212]: the IC50 in series [1] (analogs, Table 8) was 0.484 µM. Besides, the CC50 with U1 cells came out at 28.6 µM.

Values taken from patent US7875604B2, “Compounds that inhibit HIV particle formation” (University of Virginia Patent Foundation, priority 2004, dated 2011).
